Marks after values point to notes of the source that are not given here.
Tests used:
[1] = fecal steroid excretion in hepatoma-bearing rats; format: in vivo, rat; conditions: for Steroid excretion Bile acids / Steroid excretion Neutral sterols: feces, final two days, mean ± SEM of 11 rats
Experimental: Male Donryu rats of four weeks old were purchased from NRC Haruna, Gumma, Japan, and were preliminarily fed for 6 days in quintuple cages in a room with a controlled environment with light period of 8:00 to 20:00, room temperature of 22±1° C., and relative humidity of 60±5%. For the first 3 days, the animals were fed ad libitum with a stock pellet diet (CE-2; CLEA Japan, Tokyo), and for the next 3 days, they were fed a basal diet containing 20% milk casein (20C) (Table 1) ad libitum together with tap water in a glass container. Following the completion of this preparatory raising, the rats were divided into three groups (11 animals per group) with equal average body weights of the respective groups were equal, and 1.0×10^7 of AH109A cells suspended in PBS (−) were transplanted in the back of all the rats. From the time immediately after transplantation, in the respective experimental groups, the animals were fed the experimental diets shown in Table 2.
During the experimental period, the body weight, food intake and solid tumor size (sum of length, width and height) were measured everyday. On the day that the animals were killed, animals were deprived of experimental diets at 9:00, but freely given water until they were killed 4 hours later. Blood was collected from carotid, and the liver and solid tumors were excised. The collected blood was allowed to stand for approximately 2 hours at room temperature, and then centrifuged for 10 minutes at 3000 rpm (1750×g), 4° C., to obtain serum. This blood serum was frozen and stored at −20° C. The livers and solid tumors were washed with physiological saline, blotted on filter paper, and weighed. Furthermore, feces from the 19th to 21st days after transplantation were collected, and these feces were frozen and stored at −20° C. for the measurement of the amounts of steroids excreted from the body.
The amounts of fecal steroids, neutral sterol (NS) and bile acid (BA), excreted into feces were measured. The feces were dried at 60° C., and the dry weight was measured; then, the feces were pulverized using a mixer and a mortar and pestle. Approximately 100 mg of feces was precisely weighed and placed in a screw-capped test tube, and then was saponified for 1 hour at 70° C. by adding 1.5 ml of 4 N potassium hydroxide solution and 1 ml of ethanol. The NS was extracted by transferring the n-hexane layer to a test tube by adding 3 ml of n-hexane to a test tube, shaking this mixture and then subjecting to centrifugal separation at 3000 rpm (1750×g) for 10 minutes. The same operation was performed three times. Subsequently, with […] of distilled water to dilute potassium hydroxide concentration thereof to 1.2 N, and the mixture was subjected to a high-pressure treatment (autoclaved) for 3 hours at 121° C., to deconjugate the conjugated BA. After the preparation was allowed to stand until cool, BA was extracted by adding 3 ml of diethyl ether after adjusting the pH of the solution to 1 with 0.8 ml of hydrochloric acid, and the resulting mixture was shaked; then, subjecting this preparation to centrifugal separation for 10 minutes at 3000 rpm (1750×g), to transfer the diethyl ether layer to a test tube. This operation was performed three times.
The n-hexane extract was dried; then, was added with 0.4 ml of isopropanol and 1.6 ml of 10% Triton X-100. to dissolve the NS. An aliquot (0.24 ml) of this solution was sampled, and was subjected to measurement of NS using a cholesterol C test Wako. […]

AH109A cells = assay: apoptosis of AH109A cells by flow cytometry, Annexin V/PI double staining; format: cell-based, rat; conditions: for proportion of the fourth quadrant (early stage of apoptosis) / proportion of the second quadrant (secondary necrosis) / proportion of the third quadrant (live cells): 3 hours
Experimental: The analysis was performed using an ANNEXIN V FITC kit (IMMUNOTECH, Marseille, France). AH109A cells were inoculated at the density of 1×10^6 cells with 3 ml of the experimental medium in a dish with 6 cm in diameter (NUNC), and the cells were cultured for 0, 3 and 6 hours in a CO2 incubator at 37° C. The AH109A cells cultured under the respective treatment conditions were recovered, centrifuged for 5 minutes at 4° C. at 1000 rpm (90×g), and washed once with PBS (−). Subsequently, the cells was suspended in 490 μl of a binding buffer, and 5 μl of a PI solution and 5 μl of ANNEXIN V FITC, and these substances were gently mixed. The cells were stained by allowing the preparation to stand quietly for 10 minutes on ice with the light blocked. The apoptosis of the cells was analyzed using a flow cytometer (EPICS ELITE ESP; Beckman-Coulter, Hialeah, Fla., USA).

M-cells = assay: proliferative activity of M-cells by [3H]thymidine incorporation; format: cell-based, rat; conditions: in vitro
Experimental: Male Donryu rats (4 to 10 weeks of age) were anesthetized by intraperitoneal injection of Nembutal at the dose of 5 mg/0.1 ml/100 g of body weight, and blood was collected by cutting the carotid artery. Subsequently, following disinfection using a hibiten solution, the abdomens of the animals were opened in a clean bench, and the mesenteric membranes were removed one by one and washed with PBS (−), and were then recovered in another 15 ml of PBS (−). The same amount of 0.5% trypsin in PBS (−) was added, and the preparation was agitated for 20 minutes at 37° C. Subsequently, 5 ml of a 10% CS/MEM was added, to stop the trypsin reaction. Then, the preparation was subjected to pipetting by means of a Komagome Pipette, and filtrated using a metal mesh. The filtrate was centrifuged for 10 minutes at 1500 rpm (440×g), 4° C., and was washed with PBS (−). The collected cells were inoculated into a 6 cm dish with an attached grid (2 mm square) at the density of 1.5 to 2.0×10^5 cells. The medium of 10% CS/MEM was used, and the medium was changed on the day following collection and every other day thereafter. […] Subsequently, the proliferation activity was measured as above-mentioned in (3).

O=C1OCC(Cc2cccc(O)c2)C1Cc1cccc(O)c1 (stereo not drawn) [Enterolactone, enterolactone]
amounts of neutral sterol and bile acid excreted into the feces ([1]; ENL diet groups versus control diet group): significant and dose-dependent increase
Steroid excretion Bile acids ([1]; diet 10 ppm): 18.7 ± 1.49^ab μmol/2 days
Steroid excretion Neutral sterols ([1]; diet 10 ppm): 29.5 ± 2.7^b μmol/2 days
Steroid excretion Bile acids ([1]; diet 100 ppm): 20.8 ± 1.89^b μmol/2 days
Steroid excretion Neutral sterols ([1]; diet 100 ppm): 30.9 ± 2.18^b μmol/2 days
proportion of the fourth quadrant (early stage of apoptosis) (AH109A cells; 6.25 μM ENL): 8.4%
proportion of the second quadrant (secondary necrosis) (AH109A cells; 6.25 μM ENL): 2.8%
proportion of the third quadrant (live cells) (AH109A cells; 6.25 μM ENL): 88.1%
proportion of the fourth quadrant (early stage of apoptosis) (AH109A cells; 12.5 μM ENL): 11.4%
proportion of the second quadrant (secondary necrosis) (AH109A cells; 12.5 μM ENL): 2.3%
proportion of the third quadrant (live cells) (AH109A cells; 12.5 μM ENL): 86.1%
proportion of cells in the early stage of apoptosis (AH109A cells; 6.25 and 12.5 μM ENL): increased
proportion of cells showing secondary necrosis (AH109A cells; 6.25 and 12.5 μM ENL): increased to some extent
proportion of live cells (AH109A cells; 6.25 and 12.5 μM ENL): decreased in a dose-dependent manner
proliferation of M-cells (normal cells) (M-cells): inhibit the proliferation of M-cells in a dose-dependent manner

— patent US20070117864A1, “Composition for preventing and treating hepatoma” (Tokyo University of Agr. & Tech. TLO Co., Ltd., priority 2003, published 2007)
